Data taken from US5225531A, “Hexapeptide Lys Gly Ala Gly Asp Val” (Washington University, priority 1992, dated 1993).
No end group written: not given here.

Tested on: human platelet rich plasma
Assay type: cell-based
Description: Platelet aggregation assay--Aggregation studies using human platelet rich plasma were performed as previously described (20). Briefly, blood from human volunteers who had not taken any antiplatelet drugs in the previous two weeks was collected into 1/10th volume of CCD buffer (100 mM sodium citrate, 136 mM glucose, pH 6.5). The blood was centrifuged for 3 min at 1000×g and the platelet rich plasma (PRP) was transferred to a plastic tube with a plastic pipet. The PRP was adjusted to 2×10^8 platelets/ml with platelet poor plasma (prepared by centrifuging anti-coagulated blood at 2000×g for 15 min) and placed on ice. PRP and control (saline) or test peptides (500 μl) were incubated with 5 μM ADP at 37° C. in a silanized glass cuvette with stirring (900 RPM). The extent of aggregation was monitored with a Payton aggregometer 2 min after the addition of ADP. Inhibition of aggregation for each sample was determined using the following formula: % Inhibition=[…], where Tbase =% of light transmission in PRP, Tagg =% of light transmission in the aggregated PRP sample containing the saline control for peptides, and Tpep =% of light transmission in the aggregated PRP sample containing the peptide inhibitor.

HHLGGAKGAGDV
Platelet ID50 (inhibition of platelet aggregation): > 100 µM
